Patent publication US7271158B2, “Treatment of rumen acidosis with α-amylase inhibitors” (Pfizer Inc., priority 2000, dated 2007)

Test system: bacterial glucosidase activity from bovine rumen fluid cell suspension
Assay: Rumen fluid glucosidase assay
Format: biochemical, bovine rumen bacteria
Conditions: rumen fluid glucosidase screen, maltose substrate
Experimental: Rumen Fluid Glucosidase Assay Protocol This assay is used to determine IC50 values for inhibitors of bacterial glucosidase activity from bovine rumen fluid cell suspension (RFCS) using a colorimetric assay. The assay measures conversion of maltose into glucose. Rumen fluid cells are incubated with maltose in the presence of inhibitors, and the amount of glucose produced is assessed using a red colourimetric endpoint. The higher the level of inhibition the lower the glucose produced and the less red colour produced. The plates are read at 450 nm. Main reaction: • Maltose+glucosidase→glucose Glucose assay • Glucose+ATP→[…] and ADP (Hexokinase and Mg^2+) • […] and NADP→6-phosphogluconate (6-PG) and NADPH • NADPH+phenazine methosulfate ([…] (iodonitrotetrazolium chloride)→[…] is deep red coloured. […] The rumen fluid was collected into pre-warmed vacuum flasks. It was then filtered through a double layer of absorbent gauze (Absorbent gauze BP, GAUZ 4 from Robert Bailey plc, Stockport) to remove hay and feed particles. The liquid was centrifuged at a relative centrifugal force of 650 for 15 minutes to remove food particles and protozoa. The supernatant was decanted into fresh tubes and centrifuged at a relative centrifugal force of 23,300 for 60 minutes. The supernatant and the loose top layer of the pellet were discarded. The pellet was resuspended in PBS at 1:8 of original volume i.e. 50 ml of PBS for the pellet from 400 ml of rumen fluid, and frozen at -20° C. When required for use the cells were thawed by standing the tube in cold water, and then diluted to […] of cells/well (45 μl/ml). Test compounds or controls were dispensed into the 96-well assay plate at 2 μl/well, followed by 50 μl per well of 10 mM maltose and 50 μl/well of rumen fluid cell suspension. The plate was incubated at 37° C. for 1 hour. Sigma glucose detection kit […] was reconstituted by addition of 17 ml of Millipore water and 4 ml of colour reagent to each vial. 100 μl of this solution was added per well and the plate returned to the 37° C. incubator for 45 minutes. The plate was then read at 450 nm. Active compounds cause a reduction in the optical density readings when compared to the no-inhibitor control wells.

SMILES: CC1OC(OC2C(CO)OC(OC3C(CO)OC(O)C(O)C3O)C(O)C2O)C(O)C(O)C1NC1C=C(CO)C(O)C(O)C1O (stereo not shown) [Acarbose, acarbose]
- IC50: 1080 nM
